According to ChEMBL document CHEMBL4825697, “Optimization and SAR research at the piperazine and phenyl rings of JNJ4796 as new anti-influenza A virus agents, part 1” (Eur J Med Chem, 2021):

Legend:
[1] = Selectivity index, ratio of CC50 for cytotoxicity against dog MDCK cells to IC50 for antiviral activity against Oseltamivir resistant Influenza A virus (A/Tianjin-Jinnan/15/2009(H1N1)) infected in dog MDCK cells; assay type: toxicity, cell-based; conditions: read-out: Selectivity Index
Influenza A virus = assay: Antiviral activity against Oseltamivir resistant Influenza A virus (A/Tianjin-Jinnan/15/2009(H1N1) infected in dog MDCK cells assessed as inhibition of surface glycoprotein hemagglutinin; assay type: functional, organism-based

Row | SMILES | selectivity ratio [1] | IC50 (Influenza A virus) [µM]
1 | CC(=O)Nc1ccc2oc(-c3ccnc(C(=O)N4CCN([C@@H](c5ccccc5)c5nnn(C)n5)CC4)c3)nc2c1 | > 23 | 8.5
2 | CC(=O)Nc1ccc2oc(-c3ccnc(C(=O)N4CCN([C@H](c5ccccc5)c5nnn(C)n5)CC4)c3)nc2c1 | 2870 | 0.05
3 | CC(=O)Nc1ccc2oc(-c3ccnc(C(=O)N4CCN([C@@H](c5ccc(F)cc5)c5nnn(C)n5)CC4)c3)nc2c1 | > 30 | 6.65
4 | NC(=O)c1ncn([C@@H]2O[C@H](CO)[C@@H](O)[C@H]2O)n1 [RIBAVIRIN] | > 46 | 4.28
5 | CC(=O)Nc1ccc2oc(-c3ccnc(C(=O)N4CCN([C@H](c5ccc(F)cc5)c5nnn(C)n5)CC4)c3)nc2c1 | > 3330 | 0.06
6 | CCOC(=O)C1=C[C@@H](OC(CC)CC)[C@H](NC(C)=O)[C@@H](N)C1 [OSELTAMIVIR] | > 1 | 180
